The source of these data is paper PMC10740580, “Benzothiazole-Phthalimide Hybrids as Anti-Breast Cancer and Antimicrobial Agents” (Antibiotics, 2023).

Holding throughout (type): cell-based
Assay [1] concerns Candida glabrata 15126. The experiment in a line: Antifungal microdilution, C. glabrata ATCC 15126. The note with it: Nakaseomyces glabratus, microdilution CLSI M27-A3, 48 h, 37 °C, read-out: MIC C.g. 15126. The method, then: In accordance with CLSI guidelines, compounds 3a–h were tested against a variety of fungal strains (Candida albicans 10231, Candida albicans 90028, Candida glabrata 15126, and Candida parapsilosis 22019) belonging to the ATCC collection. Amphotericin B was utilized as a reference drug. A similar trend of results, or even better than that obtained against bacteria, was assessed against fungal strains. […] Also, in this case, compound 3h emerged as the best of the series, with MICs of 16 μg/mL against Candida glabrata and Candida parapsilosis strains and 32 μg/mL against Candida albicans strains.
A microdilution technique described by the Clinical and Laboratory Standards Institute (CLSI, M27-A3) was used to assess the antifungal activity. The following fungal strains, belonging to the ATCC collection and available as freeze-dried discs, were used: C. albicans ATCC 10231, C. albicans ATCC 90028, C. glabrata ATCC 15126, and C. parapsilosis ATCC 22019. Stock solutions were prepared and preserved with purity as previously described for the antibacterial studies. Each yeast strain’s pre-cultures were made in Sabouraud broth (SAB) and allowed to grow until they stopped at 37 °C. By using a spectrophotometric technique (530 nm, range 0.12–0.15), the turbidity of the yeast stock suspension was calibrated to 0.5 McFarland Standard. Next, the standardized suspension was diluted first at 1:50 with SAB and then at 1:20 in the same medium to have […]. A total of 100 µL of inoculum was seeded into each well. As a control for growth, several wells containing only inoculated broth were prepared. The plates were incubated for 48 h at 37 °C, and the MIC values were calculated as the final well with no fungal growth. […] MIC values were observed based on the absence of fungal growth in the final well. The MICs were calculated by conducting the antifungal test three times in duplicate. As a control, amphotericin B was used.

Assay [2] deals with Escherichia coli 25922. The assay is described as follows: Broth microdilution, E. coli ATCC 25922. The note with it: 24 h, 37 °C. From the text: (§1) Compounds 3a–h were examined in accordance with the Clinical Laboratory Standards Institute (CLSI) recommendations, by means of the broth microdilution method, against gram-positive bacteria (Staphylococcus aureus 25923, Staphylococcus aureus 29213, Staphylococcus aureus 43300, Enterococcus faecalis 29212) and gram-negative bacteria (Escherichia coli 25922, Klebsiella pneumoniae 13883, Pseudomonas aeruginosa 27853) belonging to the ATCC collection, using levofloxacin as a reference drug. Table 3 lists the results, expressed as MIC (µg/mL). […] The lack of activity observed for compound 3d could be conceivably due to its poor solubility in the culture medium containing the inoculum.
(§2) Following the recommendations of the CLSI (Clinical and Laboratory Standards Institute, 2012), the broth microdilution method was used to determine the in vitro minimum inhibitory concentrations (MICs, µg/mL).. The concentration of the investigated compounds was set to its highest value to create stock solutions. Then, the stock solutions were diluted 1:10 with Cation-Adjusted Mueller Hinton Broth (Oxoid, Milan, Italy). After that, a series of concentrations from 512 µg/mL to […] were obtained in the wells by performing two-fold serial dilutions in the appropriate test medium. The diluent used to create the stock solution was 100% DMSO. We used the following bacterial strains from the ATCC collection that were available as freeze-dried discs: gram-positive strains such as S. aureus ATCC 25923, 29213, and 43300, and E. faecalis ATCC 29212, and gram-negative ones such as E. coli ATCC 25922, K. pneuomoniae ATCC 13883, and P. aeruginosa ATCC 27853. To preserve the purity of cultures and to allow their reproducibility, cryovials of all microbial strains were set up in the medium and stored at −80 °C. Mueller Hinton Broth (MHB) was used to prepare pre-cultures of each bacterial strain, which were then incubated for 3–5 h at 37 °C. In accordance with CLSI procedure M7-A9, the turbidity of the bacterial cell suspension was calibrated to 0.5 McFarland Standard using a spectrophotometric approach (OD625 nm 0.08–0.10). The standardized suspension was then further diluted (1:100) with MHB to reach 1–2 × 10^6 CFU/mL. A 200 µL aliquot of the final inoculum was inserted into each well. As a control for growth, several wells containing only inoculated broth were prepared. The plates were incubated at 37 °C for 24 h, and the MIC values were calculated as the lowest concentration of compounds at which there was no optically detectable bacteria growth. Each experiment was carried out in duplicate and repeated twice to determine the MICs. Levofloxacin served as the study’s standard reference antibiotic. Additionally, the antibacterial activity of DMSO alone (used as a diluent for the investigated compounds) was examined; therefore, volumes of this solvent with a concentration of less than 5% were utilized throughout the experimentation.

In assay [3] the test system is Acinetobacter baumanii 19606. The assay is described as follows: Broth microdilution, A. baumanii 19606. The note with it: Acinetobacter baumannii, 24 h, 37 °C, read-out: MIC A.b. 19606. (Dilution methods test growth across graded concentrations, often in twofold steps.)
Assay [4] concerns Klebsiella pneumoniae 13883. The assay is described as follows: Broth microdilution, K. pneumoniae ATCC 13883. The note with it: 24 h, 37 °C, read-out: MIC K.p. 13883.
Excerpt: as §1, §2

The subject of assay [5] is Enterococcus faecalis 29212. The assay is described as follows: Broth microdilution, E. faecalis ATCC 29212. Particulars: 24 h, 37 °C, read-out: MIC E.f. 29212.
Excerpt: as §1, §2

Assay [6] concerns Staphylococcus aureus 29213. The experiment in a line: Broth microdilution, S. aureus ATCC 29213. Particulars: 24 h, 37 °C.
Excerpt: as §1, §2

The subject of assay [7] is Staphylococcus aureus 43300. The experiment in a line: Broth microdilution, S. aureus ATCC 43300. Particulars: 24 h, 37 °C, methicillin-resistant.
Excerpt: as §1, §2

In brackets after ≈: the same amount, converted by molar mass.

Regarding `O=C1c2ccccc2C(=O)N1c1nc2ccccc2s1` [3a, 2-(1,3-benzothiazol-2-yl)-1H-isoindole-1,3(2H)-dione], the MIC in assay [1] is 32 µg/mL (≈ 114 µM); in assay [2], 64 µg/mL (≈ 228 µM); in assay [3], 64 µg/mL (≈ 228 µM); in assay [4], 128 µg/mL (≈ 457 µM); in assay [5], 64 µg/mL (≈ 228 µM); in assay [6] it was 64 µg/mL (≈ 228 µM). For the same compound, it took 64 µg/mL (≈ 228 µM) to inhibit growth in assay [7] (MIC).

For `O=C1c2ccccc2C(=O)N1c1nc2ccc(F)cc2s1` [3b, 2-(6-Fluoro-1,3-benzothiazol-2-yl)-1H-isoindole-1,3(2H)-dione], the minimum inhibitory concentration (MIC) was determined as 32 µg/mL (≈ 107 µM) in assay [1]; 64 µg/mL (≈ 215 µM) in assay [2]; 128 µg/mL (≈ 429 µM) in assay [3]; 128 µg/mL (≈ 429 µM) in assay [4]; 64 µg/mL (≈ 215 µM) in assay [5]; 64 µg/mL (≈ 215 µM) in assay [6]. For the same compound, the MIC in assay [7] came to 64 µg/mL (≈ 215 µM).

Consider `O=C1c2ccccc2C(=O)N1c1nc2ccc(C(F)(F)F)cc2s1` [3c, 2-[6-Trifluoromethyl-1,3-benzothiazol-2-yl]-1H-isoindole-1,3(2H)-dione], for which the MIC in assay [1] amounted to 64 µg/mL (≈ 184 µM); in assay [2], 128 µg/mL (≈ 367 µM); in assay [3], 128 µg/mL (≈ 367 µM); in assay [4], 128 µg/mL (≈ 367 µM); in assay [5], 64 µg/mL (≈ 184 µM); in assay [6], 128 µg/mL (≈ 367 µM). In addition, the minimal inhibitory concentration (MIC) in assay [7] amounted to 64 µg/mL (≈ 184 µM).

For the compound `Cc1ccc2nc(N3C(=O)c4ccccc4C3=O)sc2c1` [3d, 2-[6-Methyl-1,3-benzothiazol-2-yl]-1H-isoindole-1,3(2H)-dione], the MIC in assay [1], in assay [2], in assay [3], in assay [4], in assay [5] and in assay [6] was > 512 µg/mL throughout. In addition, the minimal inhibitory concentration (MIC) in assay [7] is > 512 µg/mL.

`COc1ccc2nc(N3C(=O)c4ccccc4C3=O)sc2c1` [3e, 2-[6-Methoxy-1,3-benzothiazol-2-yl]-1H-isoindole-1,3(2H)-dione]: the minimal inhibitory concentration (MIC) in assay [1], in assay [2], in assay [3], in assay [4], in assay [5] and in assay [6] was 64 µg/mL (≈ 206 µM) each time. In assay [7], this compound registered an MIC of 32 µg/mL (≈ 103 µM).

For the compound `COc1cc2nc(N3C(=O)c4ccccc4C3=O)sc2cc1OC` [3f, 2-[5,6-Dimethoxy-1,3-benzothiazol-2-yl]-1H-isoindole-1,3(2H)-dione], the MIC was found to be 32 µg/mL (≈ 94 µM) in assay [1]; 32 µg/mL (≈ 94 µM) in assay [2]; 64 µg/mL (≈ 188 µM) in assay [3]; 64 µg/mL (≈ 188 µM) in assay [4]; 32 µg/mL (≈ 94 µM) in assay [5]; 64 µg/mL (≈ 188 µM) in assay [6]. Besides, the MIC in assay [7] worked out at 32 µg/mL (≈ 94 µM).

With `O=C1c2ccccc2C(=O)N1c1nc2ccc(O)cc2s1` [3g, 2-[6-Hydroxy-1,3-benzothiazol-2-yl]-1H-isoindole-1,3(2H)-dione], the MIC turned out to be 32 µg/mL (≈ 108 µM) in assay [1]; 64 µg/mL (≈ 216 µM) in assay [2]; 64 µg/mL (≈ 216 µM) in assay [3]; 64 µg/mL (≈ 216 µM) in assay [4]; 32 µg/mL (≈ 108 µM) in assay [5]; 64 µg/mL (≈ 216 µM) in assay [6]. Moreover, inhibition of growth in assay [7] (MIC) required 32 µg/mL (≈ 108 µM).

`O=C1c2ccccc2C(=O)N1c1nc2ccc(Oc3ccccc3)cc2s1` [3h, 2-[6-Phenoxy-1,3-benzothiazol-2-yl]-1H-isoindole-1,3(2H)-dione]: the MIC in assay [1] stood at 16 µg/mL (≈ 43 µM); in assay [2], 32 µg/mL (≈ 85.9 µM); in assay [3] it was 32 µg/mL (≈ 85.9 µM); in assay [4] it was 32 µg/mL (≈ 85.9 µM); in assay [5], 32 µg/mL (≈ 85.9 µM); in assay [6] it was 32 µg/mL (≈ 85.9 µM). The compound further gave an MIC in assay [7] of 32 µg/mL (≈ 85.9 µM).

The term MIC denotes the smallest concentration in the dilution series that meets the test's criterion for growth inhibition.
